Laboratory results as given in patent US20240059671A1, “TYROSINE KINASE 2 (TYK2) DEGRADATION COMPOUNDS AND METHODS OF USE” (CULLGEN (SHANGHAI), INC., priority 2020, published 2024).

Molecular target: TYK2 (Homo sapiens, UniProt P29597)
Experiment: TYK2 protein degradation in MOLT-4 cells by immunoblotting
Format: cell-based
Design: endogenous in cells; host or cells: MOLT-4
Conditions: MOLT-4 cells, 24 hours
Method in brief: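 MOLT-4 cells were exposed to compounds at 0.5 and 5 μM for 24 h, then lysed in RIPA buffer with protease and phosphatase inhibitors. TYK2 was detected by SDS-PAGE immunoblot with chemiluminescence, and band densitometry gave percent degradation.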

Chain of TYK2 (P29597 whole entry): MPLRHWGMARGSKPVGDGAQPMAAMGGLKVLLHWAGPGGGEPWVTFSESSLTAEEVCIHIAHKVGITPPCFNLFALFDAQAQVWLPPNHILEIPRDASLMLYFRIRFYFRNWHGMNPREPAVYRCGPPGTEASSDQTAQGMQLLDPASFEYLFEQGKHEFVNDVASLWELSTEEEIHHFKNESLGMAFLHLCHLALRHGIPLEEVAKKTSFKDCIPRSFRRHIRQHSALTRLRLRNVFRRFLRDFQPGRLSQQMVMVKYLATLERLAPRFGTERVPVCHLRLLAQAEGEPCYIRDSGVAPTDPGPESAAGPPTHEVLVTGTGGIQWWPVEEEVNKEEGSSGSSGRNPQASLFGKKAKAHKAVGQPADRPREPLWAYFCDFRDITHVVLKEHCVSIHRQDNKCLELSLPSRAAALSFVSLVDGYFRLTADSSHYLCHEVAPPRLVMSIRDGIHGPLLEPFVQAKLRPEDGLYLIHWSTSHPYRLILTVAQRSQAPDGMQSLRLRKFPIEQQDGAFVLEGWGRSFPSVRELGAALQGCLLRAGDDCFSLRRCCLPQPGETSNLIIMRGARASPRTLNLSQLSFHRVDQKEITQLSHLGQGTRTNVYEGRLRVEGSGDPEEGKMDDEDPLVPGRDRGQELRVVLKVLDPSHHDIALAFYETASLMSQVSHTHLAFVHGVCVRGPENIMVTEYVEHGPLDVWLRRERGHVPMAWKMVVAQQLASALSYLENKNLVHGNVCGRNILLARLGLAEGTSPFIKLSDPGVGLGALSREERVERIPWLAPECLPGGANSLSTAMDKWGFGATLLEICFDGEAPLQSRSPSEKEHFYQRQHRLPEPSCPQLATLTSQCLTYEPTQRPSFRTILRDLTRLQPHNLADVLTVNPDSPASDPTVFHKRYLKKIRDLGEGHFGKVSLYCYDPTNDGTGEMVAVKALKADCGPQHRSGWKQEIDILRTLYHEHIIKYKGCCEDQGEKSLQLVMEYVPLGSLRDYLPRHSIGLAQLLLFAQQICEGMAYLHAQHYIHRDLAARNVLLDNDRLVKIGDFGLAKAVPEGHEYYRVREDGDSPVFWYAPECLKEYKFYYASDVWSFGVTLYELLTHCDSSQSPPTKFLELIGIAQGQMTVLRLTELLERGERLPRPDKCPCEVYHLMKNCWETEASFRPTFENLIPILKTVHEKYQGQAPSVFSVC

| Compound | TYK2 Degradation (0.5 μM) | TYK2 Degradation (5 μM) | TYK2 Degradation (MOLT-4, 0.5 μM) | TYK2 Degradation (MOLT-4, 5 μM) |
| --- | --- | --- | --- | --- |
| CNC(=O)c1nnc(NC(=O)C2CC2)cc1Nc1cccc(-c2ncn(CCNC(=O)CCOCCOCCOCCOCCOCCNc3ccc4c(c3)C(=O)N(C3CCC(=O)NC3=O)C4=O)n2)c1OC (stereo not drawn) [CPD-022, 6-(Cyclopropanecarboxamido)-4-((3-(1-(1-((2-(2,6-dioxopiperidin-3-yl)-1,3-dioxoisoindolin-5-yl)amino)-18-oxo-3,6,9,12,15-pentaoxa-19-azahenicosan-21-yl)-1H-1,2,4-triazol-3-yl)-2-methoxyphenyl)amino)-N-methylpyridazine-3-carboxamide] | 40% | ≤20% |  |  |
| CNC(=O)c1nnc(NC(=O)CNC(=O)CCCCCNc2cccc3c2C(=O)N(C2CCC(=O)NC2=O)C3=O)cc1Nc1cccc(-c2ncn(C)n2)c1OC (stereo not drawn) [CPD-046, 6-(2-(6-((2-(2,6-Dioxopiperidin-3-yl)-1,3-dioxoisoindolin-4-yl)amino)hexanamido)acetamido)-4-((2-methoxy-3-(1-methyl-1H-1,2,4-triazol-3-yl)phenyl)amino)-N-methylpyridazine-3-carboxamide] | ≤20% | ≤20% |  |  |
| CNC(=O)c1nnc(NC(=O)C2CC2)cc1Nc1cccc(-c2ncn(CCNC(=O)CCCCCNc3ccc4c(c3)C(=O)N(C3CCC(=O)NC3=O)C4=O)n2)c1OC (stereo not drawn) [CPD-023, 6-(Cyclopropanecarboxamido)-4-((3-(1-(2-(6-((2-(2,6-dioxopiperidin-3-yl)-1,3-dioxoisoindolin-5-yl)amino)hexanamido)ethyl)-1H-1,2,4-triazol-3-yl)-2-methoxyphenyl)amino)-N-methylpyridazine-3-carboxamide] | ≤20% | ≤20% |  |  |
| CNC(=O)c1nnc(NC(=O)C2CC2)cc1Nc1cccc(-c2ncn(CCNC(=O)CNc3ccc4c(c3)C(=O)N(C3CCC(=O)NC3=O)C4=O)n2)c1OC (stereo not drawn) [CPD-013, 6-(Cyclopropanecarboxamido)-4-((3-(1-(2-(2-((2-(2,6-dioxopiperidin-3-yl)-1,3-dioxoisoindolin-5-yl)amino)acetamido)ethyl)-1H-1,2,4-triazol-3-yl)-2-methoxyphenyl)amino)-N-methylpyridazine-3-carboxamide] | ≤20% |  |  |  |
| CNC(=O)c1nnc(NC(=O)CNC(=O)CCCCC(=O)N[C@H](C(=O)N2C[C@H](O)C[C@H]2C(=O)NCc2ccc(-c3scnc3C)cc2)C(C)(C)C)cc1Nc1cccc(-c2ncn(C)n2)c1OC [CPD-036, N^1-((S)-1-((2S,4R)-4-Hydroxy-2-((4-(4-methylthiazol-5-yl)benzyl)carbamoyl)pyrrolidin-1-yl)-3,3-dimethyl-1-oxobutan-2-yl)-N^6-(2-((5-((2-methoxy-3-(1-methyl-1H-1,2,4-triazol-3-yl)phenyl)amino)-6-(methylcarbamoyl)pyridazin-3-yl)amino)-2-oxoethyl)adipamide] | ≤20% | 40% |  |  |
| CNC(=O)c1nnc(NC(=O)CNC(=O)CCCCCCCOc2cc(-c3scnc3C)ccc2CNC(=O)[C@@H]2C[C@@H](O)CN2C(=O)[C@@H](NC(=O)C2(F)CC2)C(C)(C)C)cc1Nc1cccc(-c2ncn(C)n2)c1OC [CPD-107, 6-(2-(8-(2-(((2S,4R)-1-((S)-2-(1-Fluorocyclopropane-1-carboxamido)-3,3-dimethylbutanoyl)-4-hydroxypyrrolidine-2-carboxamido)methyl)-5-(4-methylthiazol-5-yl)phenoxy)octanamido)acetamido)-4-((2-methoxy-3-(1-methyl-1H-1,2,4-triazol-3-yl)phenyl)amino)-N-methylpyridazine-3-carboxamide] |  |  | C (C: ≤20% TYK2 degradation) | C (C: ≤20% TYK2 degradation) |
| CNC(=O)c1nnc(NC(=O)CNC(=O)CCCCCCCCNC(=O)C[C@H](NC(=O)[C@@H]2C[C@@H](O)CN2C(=O)[C@@H](NC(=O)C2(F)CC2)C(C)(C)C)c2ccc(-c3scnc3C)cc2)cc1Nc1cccc(-c2ncn(C)n2)c1OC [CPD-093, 6-(2-(9-((S)-3-((2S,4R)-1-((S)-2-(1-Fluorocyclopropane-1-carboxamido)-3,3-dimethylbutanoyl)-4-hydroxypyrrolidine-2-carboxamido)-3-(4-(4-methylthiazol-5-yl)phenyl)propanamido)nonanamido)acetamido)-4-((2-methoxy-3-(1-methyl-1H-1,2,4-triazol-3-yl)phenyl)amino)-N-methylpyridazine-3-carboxamide] |  |  | C (C: ≤20% TYK2 degradation) | C (C: ≤20% TYK2 degradation) |
| CNC(=O)c1nnc(NC(=O)CNC(=O)CNc2cccc3c2C(=O)N(C2CCC(=O)NC2=O)C3=O)cc1Nc1cccc(-c2ncn(C)n2)c1OC (stereo not drawn) [CPD-042, 6-(2-(2-((2-(2,6-Dioxopiperidin-3-yl)-1,3-dioxoisoindolin-4-yl)amino)acetamido)acetamido)-4-((2-methoxy-3-(1-methyl-1H-1,2,4-triazol-3-yl)phenyl)amino)-N-methylpyridazine-3-carboxamide] | ≤20% | ≤20% |  |  |
| CNC(=O)c1nnc(NC(=O)CNC(=O)CCCCCCCCCNC(=O)C[C@H](NC(=O)[C@@H]2C[C@@H](O)CN2C(=O)[C@@H](NC(=O)C2(F)CC2)C(C)(C)C)c2ccc(-c3scnc3C)cc2)cc1Nc1cccc(-c2ncn(C)n2)c1OC [CPD-094, 6-(2-(10-((S)-3-((2S,4R)-1-((S)-2-(1-Fluorocyclopropane-1-carboxamido)-3,3-dimethylbutanoyl)-4-hydroxypyrrolidine-2-carboxamido)-3-(4-(4-methylthiazol-5-yl)phenyl)propanamido)decanamido)acetamido)-4-((2-methoxy-3-(1-methyl-1H-1,2,4-triazol-3-yl)phenyl)amino)-N-methylpyridazine-3-carboxamide] |  |  | B (B: <60% TYK2 degradation, and >20% TYK2 degradation) | B (B: <60% TYK2 degradation, and >20% TYK2 degradation) |
| CNC(=O)c1nnc(NC(=O)CNC(=O)CCCCCCCC(=O)N[C@H](C(=O)N2C[C@H](O)C[C@H]2C(=O)N[C@@H](C)c2ccc(-c3scnc3C)cc2)C(C)(C)C)cc1Nc1cccc(-c2ncn(C)n2)c1OC [CPD-084, N1-((S)-1-((2S,4R)-4-hydroxy-2-(((S)-1-(4-(4-methylthiazol-5-yl)phenyl)ethyl)carbamoyl)pyrrolidin-1-yl)-3,3-dimethyl-1-oxobutan-2-yl)-N9-(2-((5-((2-methoxy-3-(1-methyl-1H-1,2,4-triazol-3-yl)phenyl)amino)-6-(methylcarbamoyl)pyridazin-3-yl)amino)-2-oxoethyl)nonanediamide] |  |  | A (A: ≥60% TYK2 degradation) | A (A: ≥60% TYK2 degradation) |
| CNC(=O)c1nnc(NC(=O)CNC(=O)CCCCCCCCCOc2cc(-c3scnc3C)ccc2CNC(=O)[C@@H]2C[C@@H](O)CN2C(=O)[C@@H](NC(=O)C2(F)CC2)C(C)(C)C)cc1Nc1cccc(-c2ncn(C)n2)c1OC [CPD-109, 6-(2-(10-(2-(((2S,4R)-1-((S)-2-(1-Fluorocyclopropane-1-carboxamido)-3,3-dimethylbutanoyl)-4-hydroxypyrrolidine-2-carboxamido)methyl)-5-(4-methylthiazol-5-yl)phenoxy)decanamido)acetamido)-4-((2-methoxy-3-(1-methyl-JH-1,2,4-triazol-3-yl)phenyl)amino)-N-methylpyridazine-3-carboxamide] |  |  | B (B: <60% TYK2 degradation, and >20% TYK2 degradation) | A (A: ≥60% TYK2 degradation) |
| CNC(=O)c1nnc(NC(=O)CNC(=O)CCCCCOc2cc(-c3scnc3C)ccc2CNC(=O)[C@@H]2C[C@@H](O)CN2C(=O)[C@@H](NC(=O)C2(F)CC2)C(C)(C)C)cc1Nc1cccc(-c2ncn(C)n2)c1OC [CPD-105, 6-(2-(6-(2-(((2S,4R)-1-((S)-2-(1-Fluorocyclopropane-1-carboxamido)-3,3-dimethylbutanoyl)-4-hydroxypyrrolidine-2-carboxamido)methyl)-5-(4-methylthiazol-5-yl)phenoxy)hexanamido)acetamido)-4-((2-methoxy-3-(1-methyl-1H-1,2,4-triazol-3-yl)phenyl)amino)-N-methylpyridazine-3-carboxamide] |  |  | C (C: ≤20% TYK2 degradation) | C (C: ≤20% TYK2 degradation) |
| CNC(=O)c1nnc(NC(=O)CNC(=O)CCOCCOCCOCCOCCOCCC(=O)N[C@H](C(=O)N2C[C@H](O)C[C@H]2C(=O)NCc2ccc(-c3scnc3C)cc2)C(C)(C)C)cc1Nc1cccc(-c2ncn(C)n2)c1OC [CPD-033, N^1—((S)-1-((2S,4R)-4-Hydroxy-2-((4-(4-methylthiazol-5-yl)benzyl)carbamoyl)pyrrolidin-1-yl)-3,3-dimethyl-1-oxobutan-2-yl)-N^19-(2-((5-((2-methoxy-3-(1-methyl-1H-1,2,4-triazol-3-yl)phenyl)amino)-6-(methylcarbamoyl)pyridazin-3-yl)amino)-2-oxoethyl)-4,7,10,13,16-pentaoxanonadecanediamide] | ≤20% | ≤20% |  |  |
| CNC(=O)c1nnc(NC(=O)CNC(=O)CCCCNC(=O)C[C@H](NC(=O)[C@@H]2C[C@@H](O)CN2C(=O)[C@@H](NC(=O)C2(F)CC2)C(C)(C)C)c2ccc(-c3scnc3C)cc2)cc1Nc1cccc(-c2ncn(C)n2)c1OC [CPD-089, 6-(2-(5-((S)-3-((2S,4R)-1-((S)-2-(1-Fluorocyclopropane-1-carboxamido)-3,3-dimethylbutanoyl)-4-hydroxypyrrolidine-2-carboxamido)-3-(4-(4-methylthiazol-5-yl)phenyl)propanamido)pentanamido)acetamido)-4-((2-methoxy-3-(1-methyl-1H-1,2,4-triazol-3-yl)phenyl)amino)-N-methylpyridazine-3-carboxamide] |  |  | C (C: ≤20% TYK2 degradation) | C (C: ≤20% TYK2 degradation) |
